# In US10722514B2 (FLX Bio, Inc., priority 2017, dated 2020):
# Molecular target: T1, recombinant full-length USP7 (Homo sapiens, UniProt Q93009)
# T1 construct: A 25 μl reaction volume containing recombinant full-length USP7 (62 pM)
# Test: USP7-mediated ubiquitin-rhodamine cleavage assay
# Format: biochemical
# Conditions: recombinant full-length USP7 62 pM; ubiquitin-rhodamine 100 nM; 30-minute incubation with compound, 1 hour reaction at room temperature; read-out: Potency: USP7 IC50
# Summary of the method: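 Full-length recombinant USP7 (62 pM) in 20 mM HEPES pH 7.3, 150 mM NaCl, 1 mM TCEP, 125 μg/ml BSA, 1% DMSO, preincubated with compound 30 min at RT. Ubiquitin-rhodamine (100 nM final) cleaved 1 h at RT in the dark, stopped with acetic acid; rhodamine fluorescence read, IC50 by 4-parameter nonlinear fit.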
# T1 sequence (Q93009 whole entry): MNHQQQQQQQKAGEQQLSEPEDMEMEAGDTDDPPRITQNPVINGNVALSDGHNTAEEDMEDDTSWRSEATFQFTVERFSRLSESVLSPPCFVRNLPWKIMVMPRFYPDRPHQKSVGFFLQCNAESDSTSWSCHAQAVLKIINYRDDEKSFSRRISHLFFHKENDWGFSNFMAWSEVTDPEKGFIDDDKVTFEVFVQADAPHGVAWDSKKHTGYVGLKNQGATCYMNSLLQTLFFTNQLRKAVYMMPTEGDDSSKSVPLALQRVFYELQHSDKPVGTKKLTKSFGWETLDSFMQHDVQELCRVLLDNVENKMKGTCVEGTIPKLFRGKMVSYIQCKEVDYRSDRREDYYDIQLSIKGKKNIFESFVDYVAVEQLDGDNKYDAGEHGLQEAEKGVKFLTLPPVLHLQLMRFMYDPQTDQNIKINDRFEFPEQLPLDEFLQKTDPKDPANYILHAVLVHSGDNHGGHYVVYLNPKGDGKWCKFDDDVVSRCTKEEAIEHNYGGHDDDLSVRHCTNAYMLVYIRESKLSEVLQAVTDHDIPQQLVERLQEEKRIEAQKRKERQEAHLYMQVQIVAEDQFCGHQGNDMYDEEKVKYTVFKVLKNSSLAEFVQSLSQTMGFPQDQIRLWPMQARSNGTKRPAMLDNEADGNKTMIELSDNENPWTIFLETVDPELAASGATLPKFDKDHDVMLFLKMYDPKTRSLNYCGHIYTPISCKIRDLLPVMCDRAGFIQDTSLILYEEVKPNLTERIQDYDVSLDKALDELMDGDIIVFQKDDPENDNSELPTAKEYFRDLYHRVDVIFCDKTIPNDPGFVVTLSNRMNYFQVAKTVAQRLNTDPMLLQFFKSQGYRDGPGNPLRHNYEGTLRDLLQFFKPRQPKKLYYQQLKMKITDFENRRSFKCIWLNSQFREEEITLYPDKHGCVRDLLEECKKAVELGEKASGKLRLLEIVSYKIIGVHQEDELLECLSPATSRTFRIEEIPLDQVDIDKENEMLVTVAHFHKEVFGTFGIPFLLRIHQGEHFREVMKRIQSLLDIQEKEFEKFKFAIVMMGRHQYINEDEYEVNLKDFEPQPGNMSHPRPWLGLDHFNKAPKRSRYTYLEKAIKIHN
row,SMILES,IC50 [nM]
1,"Cc1cc(Cl)cc(-c2ccnc3cc(CN4C(=O)C5CCC5C4=O)sc23)c1O[C@H]1CCCNC1 (stereo partly drawn) [Example 297, 3-[[7-[5-chloro-3-methyl-2-[[(3S)-3-piperidyl]oxy]phenyl]thieno[3,2-b]pyridin-2-yl]methyl]-3-azabicyclo[3.2.0]heptane-2,4-dione; 2,2,2-trifluoroacetic acid]",< 1000
2,"Cc1cc(C#N)cc(-c2ncnc3cc(CO)sc23)c1O[C@H]1CCCNC1 [Example 183, (S)-3-(6-(Hydroxymethyl)thieno[3,2-d]pyrimidin-4-yl)-5-methyl-4-(piperidin-3-yloxy)benzonitrile]",1000 to 10000
3,"Cc1cc(Cl)cc(-c2ccnc3cc(CN4C(=O)CCNC4=O)sc23)c1OC1CCNCC1 [Example 222, 3-((7-(5-Chloro-3-methyl-2-(piperidin-4-yloxy)phenyl)thieno[3,2-b]pyridin-2-yl)methyl)dihydropyrimidine-2,4(1H,3H)-dione]",< 1000
4,"Cc1cc(Cl)cc(-c2ccnc3cc(CN4C(=O)CCC4C(F)(F)F)sc23)c1OC1CCNCC1 (stereo not drawn) [Example 201, 1-((7-(5-Chloro-3-methyl-2-(piperidin-4-yloxy)phenyl)thieno[3,2-b]pyridin-2-yl)methyl)-5-(trifluoromethyl)pyrrolidin-2-one]",1000 to 10000
5,"Cc1cc(C(F)(F)F)cc(-c2ccnc3cc(CN4C(=O)C5CC5C4=O)sc23)c1O[C@@H]1CNC[C@@H]1F (stereo partly drawn) [Example 131, 3-((7-(2-(((3R,4S)-4-Fluoropyrrolidin-3-yl)oxy)-3-methyl-5-(trifluoromethyl)phenyl)thieno[3,2-b]pyridin-2-yl)methyl)-3-azabicyclo[3.1.0]hexane-2,4-dione]",< 1000
6,"Cc1cc(Cl)cc(-c2ccnc3cc(CN4C(=O)CCC4=O)sc23)c1O[C@@H]1CCNC[C@@H]1C [Example 303, 1-[[7-[5-chloro-3-methyl-2-[[(3S,4R)-3-methyl-4-piperidyl]oxy]phenyl]thieno[3,2-b]pyridin-2-yl]methyl]pyrrolidine-2,5-dione]",< 1000
7,"Cc1cc(Cl)cc(-c2ccnc3cc(CN4C(=O)OC(C)(C)C4=O)sc23)c1O[C@H]1CCCNC1 [Example 311, 3-[[7-[5-chloro-3-methyl-2-[[(3S)-3-piperidyl]oxy]phenyl]thieno[3,2-b]pyridin-2-yl]methyl]-5,5-dimethyl-oxazolidine-2,4-dione; 2,2,2-trifluoroacetic acid]",< 1000
8,"Cc1cc(Cl)cc(-c2ccnc3cc(Cn4c(=O)ccn(CC(F)(F)F)c4=O)sc23)c1O[C@@H]1CCN(C)C[C@@H]1C [Example 273, 3-((7-(5-Chloro-2-(((3S,4R)-1,3-dimethylpiperidin-4-yl)oxy)-3-methylphenyl)thieno[3,2-b]pyridin-2-yl)methyl)-1-(2,2,2-trifluoroethyl)pyrimidine-2,4(1H,3H)-dione]",< 1000
9,"Cc1cc(Cl)cc(-c2ccnc3cc(CN4C(=O)CCC4=O)sc23)c1O[C@@H]1CCCNCC1 [Example 270, (R)-1-((7-(2-(Azepan-4-yloxy)-5-chloro-3-methylphenyl)thieno[3,2-b]pyridin-2-yl)methyl)pyrrolidine-2,5-dione]",< 1000
10,"Cc1cc(Cl)cc(-c2ccnc3cc([C@H](C)N4C(=O)CCC4=O)sc23)c1O[C@@H]1CNC[C@@H]1F [Example 117, 1-((S)-1-(7-(5-Chloro-2-(((3R,4S)-4-fluoropyrrolidin-3-yl)oxy)-3-methylphenyl)thieno[3,2-b]pyridin-2-yl)ethyl)pyrrolidine-2,5-dione]",< 1000
11,"Cc1cc(Cl)cc(-c2ccnc3ccsc23)c1OCC1(C)CNC1 [Example 45, 7-(5-Chloro-3-methyl-2-((3-methylazetidin-3-yl)methoxy)phenyl)thieno[3,2-b]pyridine]",< 1000
12,"Cc1cc(C(F)(F)F)cc(-c2ccnc3cc(CN4C(=O)CCC4=O)sc23)c1OC1CCNCC1 [Example 253, 1-((7-(3-Methyl-2-(piperidin-4-yloxy)-5-(trifluoromethyl)phenyl)thieno[3,2-b]pyridin-2-yl)methyl)pyrrolidine-2,5-dione]",< 1000

# More lines, now with the values ahead:
row,IC50 [nM],SMILES
1,< 1000,"Cc1cc(Cl)cc(-c2ccnc3cc(CN4C(=O)C5C(C4=O)C5(C)C)sc23)c1O[C@H]1CCNC[C@@H]1F (stereo partly drawn) [Example 383, 3-[[7-[5-chloro-2-[[(3S,4S)-3-fluoro-4-piperidyl]oxy]-3-methyl-phenyl]thieno[3,2-b]pyridin-2-yl]methyl]-6,6-dimethyl-3-azabicyclo[3.1.0]hexane-2,4-dione; 2,2,2-trifluoroacetic acid]"
2,< 1000,"Cc1cc(Cl)cc(-c2ccnc3cc(Cn4c(=O)ccn(CC(F)(F)F)c4=O)sc23)c1O[C@@H]1CNCC[C@H]1C [Example 342, 3-[[7-[5-chloro-3-methyl-2-[[(3S,4R)-4-methyl-3-piperidyl]oxy]phenyl]thieno[3,2-b]pyridin-2-yl]methyl]-1-(2,2,2-trifluoroethyl)pyrimidine-2,4-dione]"
3,< 1000,"Cc1cc(Cl)cc(-c2ncnc3cc(CN4C(=O)C5C(C4=O)C5(C)C)sc23)c1O[C@H]1CCCN[C@H]1C (stereo partly drawn) [Example 359, 3-[[4-[5-chloro-3-methyl-2-[[(2S,3S)-2-methyl-3-piperidyl]oxy]phenyl]thieno[3,2-d]pyrimidin-6-yl]methyl]-6,6-dimethyl-3-azabicyclo[3.1.0]hexane-2,4-dione]"

# Same assay, conditions: recombinant full-length USP7 62 pM; ubiquitin-rhodamine 100 nM; 30-minute pre-incubation, 1 hour reaction at room temperature; read-out: Potency (USP7 IC50)
row,IC50 [nM],SMILES
1,< 1000,"CC(=O)N1CCC[C@H](Oc2c(C)cc(Cl)cc2-c2ccnc3cc(Cn4c(=O)ccn(CC(F)(F)F)c4=O)sc23)C1 [Example 660, 3-[[7-[2-[[(3S)-1-acetyl-3-piperidyl]oxy]-5-chloro-3-methyl-phenyl]thieno[3,2-b]pyridin-2-yl]methyl]-1-(2,2,2-trifluoroethyl)pyrimidine-2,4-dione]"
2,< 1000,"CO[C@H]1CC(=O)N(Cc2cc3nccc(-c4cc(Cl)cc(C)c4O[C@H]4CCCNC4)c3s2)C1=O [Example 421, (3S)-1-[[7-[5-chloro-3-methyl-2-[[(3S)-3-piperidyl]oxy]phenyl]thieno[3,2-b]pyridin-2-yl]methyl]-3-methoxy-pyrrolidine-2,5-dione; 2,2,2-trifluoroacetic acid]"
3,< 1000,"Cc1cc(Cl)cc(-c2ccnc3cc(Cn4c(=O)ccn(CC(F)(F)F)c4=O)sc23)c1O[C@H]1CNC[C@@H]1C [Example 627, 3-[[7-[5-chloro-3-methyl-2-[(3R,4S)-4-methylpyrrolidin-3-yl]oxy-phenyl]thieno[3,2-b]pyridin-2-yl]methyl]-1-(2,2,2-trifluoroethyl)pyrimidine-2,4-dione]"
4,< 1000,"Cc1cc(Cl)cc(-c2ccnc3cc(Cn4c(=O)ccn(CC(F)(F)F)c4=O)sc23)c1O[C@@H]1CCN(CC(F)(F)F)C[C@@H]1C [Example 638, 3-[[7-[5-chloro-3-methyl-2-[[(3S,4R)-3-methyl-1-(2,2,2-trifluoroethyl)-4-piperidyl]oxy]phenyl]thieno[3,2-b]pyridin-2-yl]methyl]-1-(2,2,2-trifluoroethyl)pyrimidine-2,4-dione]"
5,< 1000,"Cc1cc(Cl)cc(-c2ccnc3cc(Cn4c(=O)ccn(CC(F)(F)F)c4=O)sc23)c1OCCN1CCCC1 [Example 661, 3-[[7-[5-chloro-3-methyl-2-(2-pyrrolidin-1-ylethoxy)phenyl]thieno[3,2-b]pyridin-2-yl]methyl]-1-(2,2,2-trifluoroethyl)pyrimidine-2,4-dione; 2,2,2-trifluoroacetic acid]"
6,< 1000,"CO[C@H]1CNC[C@H]1Oc1c(C)cc(Cl)cc1-c1ccnc2cc(Cn3c(=O)ccn(CC(F)(F)F)c3=O)sc12 [Example 655, 3-[[7-[5-chloro-2-[(3R,4S)-4-methoxypyrrolidin-3-yl]oxy-3-methyl-phenyl]thieno[3,2-b]pyridin-2-yl]methyl]-1-(2,2,2-trifluoroethyl)pyrimidine-2,4-dione]"
7,< 1000,"Cc1cc(C(F)F)cc(-c2ccnc3cc(Cn4c(=O)ccn(C)c4=O)sc23)c1O[C@H]1CCCNC1 [Example 499, 3-[[7-[5-(difluoromethyl)-3-methyl-2-[[(3S)-3-piperidyl]oxy]phenyl]thieno[3,2-b]pyridin-2-yl]methyl]-1-methyl-pyrimidine-2,4-dione]"
8,< 1000,"Cc1cc(Cl)cc(-c2ccnc3cc(Cn4c(=O)ccn(CC(F)(F)F)c4=O)sc23)c1OC1CCNCC1 [Example 568, 3-[[7-[5-chloro-3-methyl-2-(4-piperidyloxy)phenyl]thieno[3,2-b]pyridin-2-yl]methyl]-1-(2,2,2-trifluoroethyl)pyrimidine-2,4-dione]"
9,< 1000,"Cc1cc(Cl)cc(-c2ccnc3cc(Cn4c(=O)ccn(CC(F)(F)F)c4=O)sc23)c1OCCN1CCCCC1 [Example 666, 3-[[7-[5-chloro-3-methyl-2-[2-(1-piperidyl)ethoxy]phenyl]thieno[3,2-b]pyridin-2-yl]methyl]-1-(2,2,2-trifluoroethyl)pyrimidine-2,4-dione]"
10,< 1000,"COCCN1C[C@H](C)[C@H](Oc2c(C)cc(Cl)cc2-c2ccnc3cc(Cn4c(=O)ccn(CC(F)(F)F)c4=O)sc23)C1 [Example 645, 3-[[7-[5-chloro-2-[(3S,4S)-1-(2-methoxyethyl)-4-methyl-pyrrolidin-3-yl]oxy-3-methyl-phenyl]thieno[3,2-b]pyridin-2-yl]methyl]-1-(2,2,2-trifluoroethyl)pyrimidine-2,4-dione]"
11,< 1000,"Cc1cc(Cl)cc(-c2ncnc3cc(Cn4c(=O)ccn(C(C)C)c4=O)sc23)c1O[C@@H]1CCNC[C@@H]1C [Example 508, 3-[[4-[5-chloro-3-methyl-2-[[(3S,4R)-3-methyl-4-piperidyl]oxy]phenyl]thieno[3,2-d]pyrimidin-6-yl]methyl]-1-isopropyl-pyrimidine-2,4-dione]"
12,< 1000,"Cc1cc(Cl)cc(-c2ccnc3cc(CN4C(=O)CCC4=O)sc23)c1OC1CC[C@@H](C)NC1 (stereo partly drawn) [Example 463, 1-[[7-[5-chloro-3-methyl-2-[[(6R)-6-methyl-3-piperidyl]oxy]phenyl]thieno[3,2-b]pyridin-2-yl]methyl]pyrrolidine-2,5-dione; 2,2,2-trifluoroacetic acid]"
